The results in this text go back to patent US20250177398A1, “CARBONIC ANHYDRASE ENZYMES FOR REGULATING MAST CELL HEMATOPOIESIS AND TYPE 2 INFLAMMATION” (RUTGERS, THE STATE UNIVERSITY OF NEW JERSEY, priority 2015, published 2025).

Each structure is given as a SMILES string.

Assay [1] has as its system BM cells (macrophage development). Put plainly: Murine macrophage cultures: BM cells with L-cell supernatant. The assay is classed as cell-based, mouse. As to conditions: 30% L-cell supernatant, 30 μg/mL MZ, day 5 (FIG. 1G). The method, then: BM cells were isolated from the femur of WT mice and cultured in the presence of 30% L-cell supernatant and vehicle (1:10 DMSO to RPMI complete media) or 30 μg/mL MZ. Fresh macrophage medium with either vehicle or MZ was added daily and macrophage cell populations were evaluated on day 5 post-culture

The test system of a further assay is Trichinella spiralis. Put plainly: Trichinella spiralis infection of mice. The assay is classed as in vivo, mouse. The settings on record: T. spiralis-infected mice. The method, then: Methods for maintenance, recovery, infection and isolation of Trichinella larvae were performed as previously described (Urban, et al., 2000. J Immunol 164:2046-2052). Mice were infected with 500 Trichinella muscle larvae by oral gavage and were treated with vehicle (1:5 DMSO to PBS) or 2-3 mg of MZ i.p. daily; mice were sacrificed between 10-11 days post-infection. At necropsy, single cell suspensions of mLNs and spleens were prepared as previously described (Giacomin, et al., 2012. Journal of immunology (Baltimore, Md.: 1950) 189:4371-4378) for basophil and mast cell analysis. Blood was collected and serum was isolated for analysis of Mcpt1 and IgE. Sections (1 cm) of small intestine (jejunum) were collected for real-time PCR and histological analysis. Remaining sections of small intestine were slit lengthwise, rinsed in PBS, and placed in HBSS for 4 hours at 37° C. and adult worms were quantified by microscopic analysis as previously described (Urban, et al., 2000. J Immunol 164:2046-2052). Rag1^−/− mice were injected (i.p.) with a combination of recombinant IL-3 (1 μg) and α-IL-3 antibody (0.5 μg) (BioLegend: clone MP2-8F8) in 200 μl PBS every 3 days for 7-10 days. IL-3C-treated mice were treated with MZ (2 mg) or vehicle (DMSO) every day.
(§1) RNA from sections of small intestine was isolated by homogenization in TRIzol (Invitrogen) followed by phenol-chloroform extraction and isopropanol precipitation. cDNA was generated per standard protocol with Superscript reverse transcriptase (Invitrogen) and used as input for real-time PCR. Real-time data were analyzed using the ΔΔCT method using SYBR Green chemistry (Applied Biosystems) with β-actin serving as the endogenous housekeeping gene. All reactions were run on an ABI 7500 Fast Real-Time PCR System (Applied Biosystems). Samples were normalized to naïve controls. The following QuantiTech primer assays from Qiagen were used: Mcpt1 (QT00157864), IL-4 (QT00160678), IL-9 (QT00107555), Arg1 (QT00134288), Retnla (QT00254359), Car1 (QT01058113) and Car2 (QT00494592).
Single cell suspensions were made from mesenteric, or skin draining lymph nodes. Lymph node cells were cultured in RPMI complete medium and treated with and without anti-CD3 (BD Pharmingen: clone 145-2C11) and anti-CD28 antibodies (BD Pharmingen: clone 37.51) for 72 hours. Standard sandwich ELISA (eBioscience) was performed to measure IL-4 (clones 11B11 and BVD6-24G2), IL-5 (clones TRFK5 and TRFK4) and IL-13 (clones eBio13A and eBio1316H) levels in the cell-free supernatants. Serum quantities of Mcpt1 and IgE were measured by commercial sandwich ELISA kits (BD Biosciences, eBioscience).

The subject of assay [2] is food allergy-induced mast cell responses. Put plainly: Food allergy-like disease (OVA sensitization and challenge). In kind it is in vivo, mouse. The settings on record: OVA sensitized and challenged mice. The method, then: as §1, with “Retnla” left out, “(QT00494592). Single cell suspensions were made from mesenteric, or skin draining lymph nodes. Lymph node cells were cultured in RPMI complete medium and treated with and without anti-CD3 (BD Pharmingen: clone 145-2C11) and anti-CD28 antibodies (BD Pharmingen: clone 37.51) for 72 hours. Standard sandwich ELISA (eBioscience) was performed to measure IL-4 (clones 11B11 and BVD6-24G2), IL-5 (clones TRFK5 and TRFK4) and IL-13 (clones eBio13A and eBio1316H) levels in the cell-free supernatants. Serum quantities of Mcpt1 and IgE were measured by commercial sandwich ELISA kits (BD Biosciences, eBioscience). […]” for “(QT00494592).”

For assay [3], the system named is human CD34+ progenitor cells (mast cell development). Description: Human mast cell cultures from blood CD34+ progenitor cells. In kind it is cell-based. As to conditions: human CD34+ cells with SCF, consistent across 5 donors. The source says: Blood from healthy human donors was obtained from the New York Blood Center under protocols approved by the Rutgers Institutional Review Boards (IRB). Peripheral blood cells were isolated using a Ficoll gradient. CD34^+ cells were purified using a CD34 MicroBead isolation kit according to the manufacturer's protocol (Miltenyi Biotec, 130-048-702). 25-50×10^3 CD34^+ cells were placed in methocult ([…]) supplemented with stem cell factor (SCF), IL-6 and IL-3 as described previously (Saito, et al., 2006. Nat Protoc 1:2178-2183). Mast cell populations were evaluated on day 14 post-culture.

Regarding `CC(=O)/N=c1/sc(S(N)(=O)=O)nn1C` [MZ, methazolamide], the macrophage development entry in assay [1] is “no effect”. Moreover, the “type 2 responses (mLN cell IL-4, IL-5, IL-13; intestinal il4, il9, arg1, retnla; serum IgE)” value in the assay with Trichinella spiralis (2-3 mg MZ i.p. daily (FIG. 3A-C)) is on record as “significantly reduced”. In addition, the “worms recovered from the intestines (worm burden)” value in the assay with Trichinella spiralis (2-3 mg MZ i.p. daily (FIG. 3D)) is on record as “significantly more”. Moreover, in the assay with Trichinella spiralis (2-3 mg MZ i.p. daily (FIGS. 2F-2G)), the “infection-induced basophilia (splenic basophils)” value is recorded as “no effect”. Moreover, the “mast cell responses (mLN mast cells, serum Mcpt1, intestinal mcpt1 expression, intestinal mast cells by histology)” value in the assay on Trichinella spiralis (2-3 mg MZ i.p. daily, day 10-11 (FIGS. 2A-2E)) is recorded as “significantly reduced”. Further, the “mast cell responses (serum Mcpt1, intestinal mcpt1 expression, intestinal mast cells by histology)” value in assay [2] (2-3 mg MZ i.p. daily (FIG. 4A-D)) is “significantly decreased”. For the same compound, the “serum IgE levels” value in assay [2] (2-3 mg MZ i.p. daily (FIG. 4E)) is “significantly increased”. In assay [3] (IL-6, IL-3, day 14 (FIGS. 4L-4M)), the “percentages of mast cells” value was “significantly reduced”. Also, the “total numbers of mast cells” value in assay [3] (IL-6, IL-3, day 14 (FIGS. 4L-4N)) was “significantly reduced”.
